{"source": "paper PMC6271179", "about": "(Molecules, 2014)", "key": {"[1]": {"test": "In vivo pharmacokinetics after oral (intragastric) administration to rats", "conditions": "rat", "description": "Derivative 2 was administered to overnight-fasted male Wistar rats from the facility of the Department of Biomedical Sciences as a single intragastric dose (88 µmol/kg, dissolved in 250 µL water). Blood samples were obtained by the tail bleeding technique: before drug administration, rats were anesthetised with isoflurane and the tip of the tail was cut off; blood samples (80–100 µL each) were then taken from the tail tip at different time points after drug administration. Blood was collected in heparinised tubes, kept in ice and treated as described in [90] within 10 min.\nFor quantification purposes we assumed the same absorption coefficient."}, "[2]": {"test_system": "explanted rat jejunum segments", "test": "Permeation across explanted rat jejunum segments in Ussing-type chambers (ex vivo)", "method": "We assayed transport of the derivatives across explanted rat jejunum segments using Ussing-type chambers.\nIntestine was excised from 18 h fasted rats and transferred into a saline solution (154 mM NaCl in water) at 37 °C. The jejunum was cut into 1 cm long strips, opened longitudinally, rinsed free of luminal content and mounted in Ussing-type chambers. Apical and basolateral compartments were filled with 1 mL each of oxygenated HEPES buffer (248 mM NaCl, 55.3 mM glucose, 50 mM NaHCO3, 9.9 mM KCl, 1.9 mM MgSO4, 40 mM HEPES, pH 6.8), and incubated in a water bath at 37 °C until all chambers were assembled (approximately 20 min). The buffer was then removed and substituted with 1 mL of a 20 µM solution (in the same buffer) of the compound to be tested on the apical side (dilution from a 20 mM stock solution), and with 1 mL of fresh HEPES buffer on the basolateral one. […] During the experiment, oxygen was continuously bubbled in each basolateral compartment. […]\nSamples (2 µL) were analyzed by HPLC/UV (1290 Infinity LC System, Agilent Technologies) using a reverse phase column (Zorbax RRHD Eclipse Plus C18, 1.8 µm, 50 x 2.1 mm i.d.; Agilent Technologies) and a UV diode array detector (190-500 nm). […]"}}, "data": [{"smiles": "CN(CCCCOC1C(O)C(O)OC(CO)C1O)C(=O)Oc1ccc(C=Cc2cc(OC(=O)N(C)CCCCOC3C(O)C(O)OC(CO)C3O)cc(OC(=O)N(C)CCCCOC3C(O)C(O)OC(CO)C3O)c2)cc1", "note": "[derivative 2, 3,4',5-Tri-[α/β-D-glucopyranose-3-(4-N-methyl-N-butoxy)]-resveratrol carbamate]", "values": [{"measurement": "Tmax", "setting": "[1]; male, Wistar, whole blood, po, 88 umol/kg, single intragastric dose 88 µmol/kg, blood, read-out: time of maximum blood levels (converted)", "value": "~1", "unit": "h"}, {"measurement": "concentration of the derivative in the bloodstream", "setting": "[1]; gavage 88 µmol/kg, during the 4 hours following administration", "value": "low concentrations"}, {"measurement": "resveratrol and its common metabolites in blood after oral administration (hydrolysis of carbamate groups)", "setting": "[1]; oral, also basolateral chamber ex vivo", "value": "Neither resveratrol nor its common metabolites were present in detectable amounts"}, {"measurement": "species detected in the basolateral chamber", "setting": "[2]; 20 µM apical, 2.5 h", "value": "only the intact derivative was detected"}, {"measurement": "extent of translocation with SGLT-1/GLUT-2 inhibitors (phlorizin, phloretin, cytochalasin B), low glucose, non-fasted or glucose-fed rats", "setting": "[2]; comparison among conditions", "value": "not to differ significantly"}]}]}
